Source: patent US7144720B2, “Protein and DNA thereof” (Takeda Chemical Industries, Ltd., priority 1998, dated 2006)
Peptide text beside a SMILES is read from it. * marks the point of attachment. Cbz = O=C(OCc1ccccc1)*; NHOH = ON*

T1: ADAM protein (Homo sapiens, UniProt Q9UKQ2)
T1 construct: made in house; host or cells: Escherichia coli BL21 (DE3)
T1 sequence (Q9UKQ2 199-495): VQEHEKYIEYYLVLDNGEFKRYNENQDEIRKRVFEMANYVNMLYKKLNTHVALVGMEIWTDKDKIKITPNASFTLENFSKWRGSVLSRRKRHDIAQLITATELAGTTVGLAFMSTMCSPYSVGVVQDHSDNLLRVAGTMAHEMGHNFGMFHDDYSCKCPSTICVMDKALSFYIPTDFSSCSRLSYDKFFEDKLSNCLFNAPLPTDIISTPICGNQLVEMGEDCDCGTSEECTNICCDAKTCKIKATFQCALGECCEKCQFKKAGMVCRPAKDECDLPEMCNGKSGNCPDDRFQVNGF

T2: MOCAc-Arg-Pro-Lys-Pro-Tyr-Ala-Nva-Trp-Met-Lys(DNP)-NH2 (Homo sapiens, UniProt Q9UKQ2)
T2 construct: made in house; host or cells: Escherichia coli BL21 (DE3)
T2 sequence (Q9UKQ2 199-495): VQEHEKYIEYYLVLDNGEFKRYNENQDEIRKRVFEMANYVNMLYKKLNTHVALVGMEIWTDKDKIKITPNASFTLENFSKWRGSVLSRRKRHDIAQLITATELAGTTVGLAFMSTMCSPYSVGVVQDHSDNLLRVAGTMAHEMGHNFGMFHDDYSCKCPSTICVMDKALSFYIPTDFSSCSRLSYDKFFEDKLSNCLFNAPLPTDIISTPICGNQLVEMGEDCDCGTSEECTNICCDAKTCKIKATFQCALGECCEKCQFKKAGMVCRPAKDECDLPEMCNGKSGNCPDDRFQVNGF

T3: Nma-Pro-Lys-Pro-Leu-Ala-Nva-Trp-Lys(DNP)-NH2 (Homo sapiens, UniProt Q9UKQ2)
T3 construct: made in house; host or cells: Escherichia coli BL21 (DE3)
T3 sequence (Q9UKQ2 199-495): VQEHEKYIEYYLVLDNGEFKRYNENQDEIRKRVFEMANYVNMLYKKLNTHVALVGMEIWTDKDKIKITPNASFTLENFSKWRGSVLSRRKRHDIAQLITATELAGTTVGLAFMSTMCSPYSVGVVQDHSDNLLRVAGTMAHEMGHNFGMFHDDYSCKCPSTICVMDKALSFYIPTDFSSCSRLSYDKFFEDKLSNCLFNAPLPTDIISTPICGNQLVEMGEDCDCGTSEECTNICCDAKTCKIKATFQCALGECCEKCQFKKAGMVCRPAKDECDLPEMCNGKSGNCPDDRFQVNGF


How the values were obtained:
Type in all cases: biochemical
[1] = target: T1, ADAM protein; assay: Inhibition of the protease activity of the ADAM protein by test compounds; conditions: Nma-Pro-Lys-Pro-Leu-Ala-Nva-Trp-Lys(DNP)-NH2 substrate, 37° C., 2 hours; read-out: IC50 value (concentration of a test compound which 50% inhibits the protease activity)
Method: (§1) An enzymatic reaction was initiated by adding 75 μl of a buffer (83.3 mM Tris-HCl, pH 7.5, 16.7 mM NaCl, 1.67 mM CaCl2, 16.7 μM CoCl2, and 0.067% BSA) to a solution (25 μl) of the ADAM protein obtained according to the same manner as that of Example 3, and adding 25 μl of a solution of a substrate (50 μM Nma-Pro-Lys-Pro-Leu-Ala-Nva-Trp-Lys(DNP)-NH2, 0.05% BSA, and 5% DMSO). After a temperature was held at 37° C. for 2 hours, 100 μl of a 0.5M acetate buffer (pH 3.0) was added to stop the enzymatic reaction. The fluorescent intensity in the case of addition of no an enzyme solution [fluorescent intensity was measured at an excitation wavelength of 340 nm and a measuring wavelength of 450 nm using a fluorescent platereader (Corona MTP-32)] was 10, while the fluorescent intensity in the case of addition of the enzyme solution was 180.
10 μl of a test compound adjusted to the predetermined concentration (dissolved in 50% DMSO) was added to the above activity measuring system. […] From this, it was considered that search on a substance which regulates (inhibits or promotes) the protease activity of the present ADAM protein can be conducted using the present assay system.

[2] = target: T2, MOCAc-Arg-Pro-Lys-Pro-Tyr-Ala-Nva-Trp-Met-Lys(DNP)-NH2; assay: Detection of the protease activity of recombinant ADAM protein (fluorogenic MOCAc peptide substrate); conditions: 37° C. for 22 hour; excitation 328 nm, 393 nm; 10 μM substrate; intensity 2 when no protein added
Method: 30 μL of a buffer [250 mM Tris-hydrochloric acid (pH7.5), 5 mM calcium chloride, and 10 μM zinc chloride] and 20 μL of the recombinant ADAM protein (0.8 mg/mL) obtained in Example 3 were added to a 96-well plate (Fluoro B plate, manufactured by Dainihonseiyaku). After preincuvation at 37° C. for 10 minutes, an enzymatic reaction was initiated by adding 100 μL of a 10 μM substrate [MOCAc-Arg-Pro-Lys-Pro-Tyr-Ala-Nva-Trp -Met-Lys(DNP)-NH2, manufactured by Peptide Laboratory]. After the reaction at 37° C. for 22 hour, the fluorescent intensity in the reaction solution was measured at an excitation wave length of 328 nm and […] wave length of 393 nm using a microplatereader (manufactured by Applied Biosystems). The fluorescent intensity was 2 when no recombinant ADAM protein was added, while the fluorescent intensity of 70 was shown when the protein was added. From these, it was made clear that the present ADAM protein had the protease activity. It is considered that search of a substance which regulates (inhibits and promotes) the protease activity of the present ADAM protein is possible using this assay.

[3] = target: T3, Nma-Pro-Lys-Pro-Leu-Ala-Nva-Trp-Lys(DNP)-NH2; assay: Protease activity of ADAM protein with Nma peptide substrate; conditions: 37° C. for 2 hours; excitation 340 nm, measuring 450 nm; intensity 10 without enzyme solution
Method: as §1

Row | IC50 [1] [µM] | fluorescent intensity [2] | fluorescent intensity [3] | Molecule
1 | 600 |  |  | CCCCC[C@H](CC(=O)NO)C(=O)N[C@H](C(=O)N1CCC[C@H]1CO)C(C)C [actinonin]
2 | ~100 |  |  | CC(C)C[C@H](NC(=O)[C@@H]1CCCN1C(=O)OCc1ccccc1)C(=O)NCC(=O)NO [N-CBZ-Pro-Leu-Gly-hydroxamate] (Cbz-Pro-Leu-Gly-{NHOH})
3 |  | 70 | 180 | recombinant ADAM protein: about 35 kDa His-tagged metalloprotease and disintegrin region of the novel human ADAM protein, expressed in Escherichia coli from pMDH (protein, left off: small tags and cut ends, about 35 kDa His-tagged metalloprotease and disintegrin region of the novel human ADAM protein, expressed in Escherichia coli from pMDH) VQEHEKYIEYYLVLDNGEFKRYNENQDEIRKRVFEMANYVNMLYKKLNTHVALVGMEIWTDKDKIKITPNASFTLENFSKWRGSVLSRRKRHDIAQLITATELAGTTVGLAFMSTMCSPYSVGVVQDHSDNLLRVAGTMAHEMGHNFGMFHDDYSCKCPSTICVMDKALSFYIPTDFSSCSRLSYDKFFEDKLSNCLFNAPLPTDIISTPICGNQLVEMGEDCDCGTSEECTNICCDAKTCKIKATFQCALGECCEKCQFKKAGMVCRPAKDECDLPEMCNGKSGNCPDDRFQVNGF
